Experimental data as given in patent US9657033B2, “Tetrahydronaphthyridine and related bicyclic compounds for inhibition of RORγ activity and the treatment of disease” (Merck Sharp & Dohme Corp., priority 2012, dated 2017).
Structures can show the parent of a compound that is named as a salt.

molecular target: RORγ-LBD (Homo sapiens (Human), UniProt P51449); assay: RORγ-Ligand Binding Domain (LBD) TR-FRET Assay Protocol II; format: biochemical; settings: purified RORγ-LBD, SRC1 peptide, overnight at 4° C.
Protocol: Part II—Procedures for RORγ-Ligand Binding Domain TR-FRET Assay Protocol II
HIS-tagged RORγ-LBD protein was expressed in SF9 cells using a baculovirus expression system. The RORγ-LBD protein was purified by […]. Separately, SF9 cells not expressing recombinant protein were lysed in TBS buffer (25 mM Tris, pH 8.0, 150 mM NaCl) under sonication. The lysate was added to the purified RORγ-LBD in a volume equivalent of 0.75 μL lysate (from 30,000 SF9 cells) per 75 femtomol of RORγ-LBD protein. The resulting mixture was diluted in assay buffer (50 mM Tris pH 7.0, 50 mM KCl, 1 mM EDTA, 0.1 mM DTT, 0.01% BSA) to obtain RORγ-LBD protein at a final concentration of 3 nM.
Compounds to be tested were injected to the assay plate using Acoustic Droplet Ejection technology by Echo 550 liquid handler (Labcyte, Calif.).
A stock of biotinylated-LXXLL peptide from coactivator SRC1 (Biotin-[…]) was prepared in assay buffer and added to each well (100 nM final concentration). A solution of Europium tagged anti-HIS antibody (1.25 nM final concentration) and APC-conjugated streptavidin (8 nM final concentration) were also added to each well.
The final assay mixture was incubated overnight at 4° C., and the fluorescence signal was measured on an Envision plate reader: (Excitation filter=340 nm; APC emission=665 nm; Europium emission=615 nm; dichroic mirror=D400/D630; delay time=100 μs, integration time=200 μs). The EC50 value for test compounds was calculated from the quotient of the fluorescence signal at 665 nm divided by the fluorescence signal at 615 nm

Sequence of RORγ-LBD (P51449 269-508): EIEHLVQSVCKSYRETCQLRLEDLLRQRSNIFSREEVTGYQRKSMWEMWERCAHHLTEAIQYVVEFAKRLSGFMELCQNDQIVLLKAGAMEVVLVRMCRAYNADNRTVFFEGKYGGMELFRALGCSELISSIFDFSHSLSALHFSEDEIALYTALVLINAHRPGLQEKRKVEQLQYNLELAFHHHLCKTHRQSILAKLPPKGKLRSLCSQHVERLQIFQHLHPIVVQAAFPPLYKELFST

O=C(Nc1cnc2c(c1)N(S(=O)(=O)c1cccc(C(F)(F)F)c1)CC(N1CCOC1=O)C2)c1c(Cl)cccc1Cl (stereo in doubt) [Compound 98, (R)-2,6-dichloro-N-(7-(2-oxooxazolidin-3-yl)-5-((3-(trifluoromethyl)phenyl)sulfonyl)-5,6,7,8-tetrahydro-1,5-naphthyridin-3-yl)benzamide] was tested. Which EC50 did it give?
The EC50 was 17 nM.

For CC(=O)NC[C@H]1CN(S(=O)(=O)c2cccc(C3CC3)c2)c2cc(NC(=O)c3c(Cl)cccc3Cl)cnc2O1 [Compound 18, (S)-N-(3-(acetamidomethyl)-1-((3-cyclopropylphenyl)sulfonyl)-2,3-dihydro-1H-pyrido[2,3-b][1,4]oxazin-7-yl)-2,6-dichlorobenzamide], which EC50 is on record?
The EC50 was 13 nM.

How did the EC50 turn out when Cc1cccc(S(=O)(=O)N2C[C@H](C)Oc3ncc(NC(=O)C(C)C(F)(F)F)cc32)c1 (stereo partly drawn) [Compound 30] was run?
The EC50 was 111 nM.

For Cc1cccc(S(=O)(=O)N2C[C@H](C)Oc3ncc(NC(=O)C(C)c4ccccc4C)cc32)c1 (stereo partly drawn) [Compound 31], which EC50 is on record?
The EC50 was 57 nM.

With Cc1cccc(S(=O)(=O)N2C[C@H](C)Oc3ncc(NC(=O)C(C)c4ccc(F)cc4)cc32)c1 (stereo partly drawn) [Compound 32] as the compound, how does the EC50 read?
Its EC50 is 97 nM.

Which EC50 does the source give for CCC(C)C(=O)Nc1cnc2c(c1)N(S(=O)(=O)c1cccc(C)c1)C[C@H](C)O2 (stereo partly drawn) [Compound 33] here?
The EC50 was 152 nM.

Which EC50 does the source give for Cc1cccc(S(=O)(=O)N2C[C@H](C)Oc3ncc(NC(=O)C(C)c4ccc(Cl)cc4)cc32)c1 (stereo partly drawn) [Compound 34] here?
The EC50 was 108 nM.

With C[C@H]1CN(S(=O)(=O)c2cccc(C3CC3)c2)c2cc(NC(=O)c3c(Cl)cccc3Cl)cnc2O1 [Compound 35] as the compound, how does the EC50 read?
The EC50 was 7 nM.

Which EC50 does the source give for Cc1cccc(S(=O)(=O)N2C[C@H](NC(=O)OC(C)(C)C)Cc3ncc(NC(=O)c4c(Cl)cccc4Cl)cc32)c1 [Compound 39, (R)-tert-butyl (7-(2,6-dichlorobenzamido)-1-(m-tolylsulfonyl)-1,2,3,4-tetrahydro-1,5-naphthyridin-3-yl)carbamate] here?
The EC50 was 25 nM.

Which EC50 does the source give for Cc1cccc(S(=O)(=O)N2C[C@H](N)Cc3ncc(NC(=O)c4c(Cl)cccc4Cl)cc32)c1 [Compound 40, (R)-N-(7-amino-5-(m-tolylsulfonyl)-5,6,7,8-tetrahydro-1,5-naphthyridin-3-yl)-2,6-dichlorobenzamide trifluoroacetic acid salt] here?
Its EC50 is 18 nM.

For CC(=O)N[C@@H]1Cc2ncc(NC(=O)c3c(Cl)cccc3Cl)cc2N(S(=O)(=O)c2cccc(C)c2)C1 [Compound 41, (R)-N-(7-acetamido-5-(m-tolylsulfonyl)-5,6,7,8-tetrahydro-1,5-naphthyridin-3-yl)-2,6-dichlorobenzamide], which EC50 is on record?
The EC50 was 18 nM.

COC(=O)N[C@@H]1Cc2ncc(NC(=O)c3c(Cl)cccc3Cl)cc2N(S(=O)(=O)c2cccc(C)c2)C1 [Compound 42, (R)-methyl (7-(2,6-dichlorobenzamido)-1-(m-tolylsulfonyl)-1,2,3,4-tetrahydro-1,5-naphthyridin-3-yl)carbamate] was tested. Which EC50 did it give?
The EC50 was 25 nM.

With CC(=O)NC[C@H]1CN(S(=O)(=O)c2cccc(C3CC3)c2)c2cc(NC(=O)c3c(Cl)cccc3Cl)cnc2O1 [Compound 43] as the compound, how does the EC50 read?
Its EC50 is 24 nM.

CC(C)(C)OC(=O)N[C@@H]1Cc2ncc(NC(=O)c3c(Cl)cccc3Cl)cc2N(S(=O)(=O)c2cccc(Cl)c2)C1 [Compound 45] was tested. Which EC50 did it give?
The EC50 was 6 nM.

CC(=O)NC1Cc2ncc(NC(=O)c3c(Cl)cccc3Cl)cc2N(S(=O)(=O)c2cccc(Cl)c2)C1 (stereo not drawn) [Compound 46] was tested. Which EC50 did it give?
The EC50 was 72 nM.

For CC(C)OC(=O)N[C@H]1Cc2ncc(NC(=O)c3c(Cl)cccc3Cl)cc2N(S(=O)(=O)c2cccc(C(F)(F)F)c2)C1 [Compound 47], which EC50 is on record?
Its EC50 is 36 nM.

With CN(C)C(=O)NC1Cc2ncc(NC(=O)c3c(Cl)cccc3Cl)cc2N(S(=O)(=O)c2cccc(C(F)(F)F)c2)C1 (stereo not drawn) [Compound 48] as the compound, how does the EC50 read?
Its EC50 is 10 nM.

Cc1nn(C(F)F)cc1S(=O)(=O)N1C[C@@H](NC(=O)C(F)(F)F)Cc2ncc(NC(=O)c3c(F)cccc3Cl)cc21 [Compound 49] was tested. Which EC50 did it give?
The EC50 was 12 nM.

With Cc1nn(C(F)F)cc1S(=O)(=O)N1C[C@H](NC(=O)C(F)(F)F)Cc2ncc(NC(=O)c3c(F)cccc3Cl)cc21 [Compound 50] as the compound, how does the EC50 read?
Its EC50 is 31 nM.

How did the EC50 turn out when C[C@H](N)C(=O)N[C@H]1Cc2ncc(NC(=O)c3c(Cl)cccc3Cl)cc2N(S(=O)(=O)c2cccc(C(F)(F)F)c2)C1 [Compound 51] was run?
The EC50 was 852 nM.

How did the EC50 turn out when C[C@H](O)C(=O)N[C@H]1Cc2ncc(NC(=O)c3c(Cl)cccc3Cl)cc2N(S(=O)(=O)c2cccc(C(F)(F)F)c2)C1 [Compound 52] was run?
The EC50 was 74 nM.

Which EC50 does the source give for N[C@H]1Cc2ncc(NC(=O)c3c(Cl)cccc3Cl)cc2N(S(=O)(=O)c2cccc(C(F)(F)F)c2)C1 [Compound 53] here?
The EC50 was 25 nM.

CC(C)(C)OC(=O)N[C@H]1Cc2ncc(NC(=O)c3c(Cl)cccc3Cl)cc2N(S(=O)(=O)c2cccc(C(F)(F)F)c2)C1 [Compound 54] was tested. Which EC50 did it give?
The EC50 was 17 nM.

How did the EC50 turn out when C[C@H](N)C(=O)N[C@@H]1Cc2ncc(NC(=O)c3c(Cl)cccc3Cl)cc2N(S(=O)(=O)c2cccc(C(F)(F)F)c2)C1 [Compound 55] was run?
The EC50 was 32 nM.

For C[C@H](O)C(=O)N[C@@H]1Cc2ncc(NC(=O)c3c(Cl)cccc3Cl)cc2N(S(=O)(=O)c2cccc(C(F)(F)F)c2)C1 [Compound 56], which EC50 is on record?
Its EC50 is 132 nM.

Which EC50 does the source give for N[C@H]1Cc2ncc(NC(=O)c3c(Cl)cccc3Cl)cc2N(S(=O)(=O)c2cccc(C(F)(F)F)c2)C1 [Compound 57] here?
Its EC50 is 24 nM.

With CC(C)OC(=O)N[C@@H]1Cc2ncc(NC(=O)c3c(Cl)cccc3Cl)cc2N(S(=O)(=O)c2cccc(C(F)(F)F)c2)C1 [Compound 58] as the compound, how does the EC50 read?
Its EC50 is 13 nM.

CC(C)(C)OC(=O)N[C@@H]1Cc2ncc(NC(=O)c3c(Cl)cccc3Cl)cc2N(S(=O)(=O)c2cccc(C(F)(F)F)c2)C1 [Compound 59] was tested. Which EC50 did it give?
Its EC50 is 24 nM.

Which EC50 does the source give for N[C@H](CO)C(=O)NC1Cc2ncc(NC(=O)c3c(Cl)cccc3Cl)cc2N(S(=O)(=O)c2cccc(C(F)(F)F)c2)C1 (stereo partly drawn) [Compound 60] here?
The EC50 was 23 nM.

For CCOC(=O)N[C@H]1Cc2ncc(NC(=O)c3c(Cl)cccc3Cl)cc2N(S(=O)(=O)c2cccc(C(F)(F)F)c2)C1 [Compound 63], which EC50 is on record?
Its EC50 is 26 nM.

For CCOC(=O)N[C@@H]1Cc2ncc(NC(=O)c3c(Cl)cccc3Cl)cc2N(S(=O)(=O)c2cccc(C(F)(F)F)c2)C1 [Compound 64], which EC50 is on record?
Its EC50 is 18 nM.

Cc1nn(C(F)F)cc1S(=O)(=O)N1C[C@@H](NC(=O)OC(C)C)Cc2ncc(NC(=O)c3c(F)cccc3Cl)cc21 [Compound 65] was tested. Which EC50 did it give?
The EC50 was 9 nM.

Cc1nn(C(F)F)cc1S(=O)(=O)N1C[C@H](NC(=O)OC(C)C)Cc2ncc(NC(=O)c3c(F)cccc3Cl)cc21 [Compound 66] was tested. Which EC50 did it give?
The EC50 was 204 nM.

With Cc1cccc(S(=O)(=O)N2C[C@H](NC(=O)[C@H](C)O)Cc3ncc(NC(=O)c4c(Cl)cccc4Cl)cc32)c1 [Compound 67] as the compound, how does the EC50 read?
The EC50 was 23 nM.

How did the EC50 turn out when CC(=O)NC1Cc2ncc(NC(=O)c3c(Cl)cccc3Cl)cc2N(S(=O)(=O)c2cccc(C3CC3)c2)C1 (stereo not drawn) [Compound 68] was run?
Its EC50 is 25 nM.

For CC(C)(C)OC(=O)NC1Cc2ncc(NC(=O)c3c(Cl)cccc3Cl)cc2N(S(=O)(=O)c2cccc(C3CC3)c2)C1 (stereo not drawn) [Compound 69], which EC50 is on record?
Its EC50 is 13 nM.

With NC1Cc2ncc(NC(=O)c3c(Cl)cccc3Cl)cc2N(S(=O)(=O)c2cccc(C3CC3)c2)C1 (stereo not drawn) [Compound 70] as the compound, how does the EC50 read?
The EC50 was 38 nM.

Which EC50 does the source give for Cc1cccc(S(=O)(=O)N2CC(N)COc3ncc(NC(=O)C(F)(F)F)cc32)c1 (stereo not drawn) [Compound 71, N-[7-amino-5-(toluene-3-sulfonyl)-5,6,7,8-tetrahydro-9-oxa-1,5-diaza-benzocyclohepten-3-yl]-2,2,2-trifluoro-acetamide] here?
Its EC50 is 13 nM.

Cc1cccc(S(=O)(=O)N2CC(N)COc3ncc(NC(=O)c4c(Cl)cccc4Cl)cc32)c1 (stereo not drawn) [Compound 74, N-[7-amino-5-(toluene-3-sulfonyl)-5,6,7,8-tetrahydro-9-oxa-1,5-diaza-benzocyclohepten-3-yl]-2,6-dichloro-benzamide] was tested. Which EC50 did it give?
The EC50 was 174 nM.

Which EC50 does the source give for CC(=O)NC1COc2ncc(NC(=O)c3c(Cl)cccc3Cl)cc2N(S(=O)(=O)c2cccc(C)c2)C1 (stereo not drawn) [Compound 75, N-[7-acetylamino-5-(toluene-3-sulfonyl)-5,6,7,8-tetrahydro-9-oxa-1,5-diaza-benzocyclohepten-3-yl]-2,6-dichloro-benzamide] here?
Its EC50 is 291 nM.

Which EC50 does the source give for Cc1cccc(S(=O)(=O)N2CC(N(C)C)COc3ncc(NC(=O)c4c(Cl)cccc4Cl)cc32)c1 (stereo not drawn) [Compound 76, 2,6-dichloro-N-[7-dimethylamino-5-(toluene-3-sulfonyl)-5,6,7,8-tetrahydro-9-oxa-1,5-diaza-benzocyclohepten-3-yl]-benzamide] here?
The EC50 was 98 nM.

CCNC1Cc2ncc(NC(=O)c3c(Cl)cccc3Cl)cc2N(S(=O)(=O)c2cccc(C)c2)C1 (stereo not drawn) [Compound 77] was tested. Which EC50 did it give?
Its EC50 is 553 nM.

How did the EC50 turn out when CCN(CC)[C@H]1Cc2ncc(NC(=O)c3c(Cl)cccc3Cl)cc2N(S(=O)(=O)c2cccc(C)c2)C1 [Compound 78] was run?
Its EC50 is 25 nM.

How did the EC50 turn out when CCN(CC)[C@@H]1Cc2ncc(NC(=O)c3c(Cl)cccc3Cl)cc2N(S(=O)(=O)c2cccc(C)c2)C1 [Compound 79] was run?
Its EC50 is 24 nM.

Which EC50 does the source give for O=C(Nc1ccc2c(c1)N(S(=O)(=O)c1cccc(Cl)c1)C[C@H](CN1CCCC1=O)O2)c1c(Cl)cccc1Cl [Compound 80, 2,6-dichloro-N-[(S)-4-(3-chloro-benzenesulfonyl)-2-(2-oxopyrrolidin-1-ylmethyl)-3,4-dihydro-2H-benzo[1,4]oxazin-6-yl]-benzamide] here?
Its EC50 is 26 nM.
